In PMC8776995 (Frontiers in Chemistry, 2022):
Values joined by “and” are separate entries in the source; they are usually repeats but may differ in a detail not shown here. Equal entries are not always repeated. Where two headings read alike, the source gives them in different places.

Experiments:
PC-9 cells = assay: Flow cytometry detection for cell cycle, PC-9; assay type: cell-based, human; conditions: for G0/G1 / G2/M / S: single repeats (Repeat 1-3); for percentage of cells in the G0/G1 phase: PC-9, various concentrations, 24 h
Experimental: To investigate the effects of compounds e4 and e12 on various phases of the cell cycle, PC-9 cells were treated with compound e4 or e12 of various concentrations for 24 h, and H460 cells were treated with compound e4 or e12 of various concentrations for 12 h.
PC-9 or H460 (2 × 10^5–3 × 10^5/well) cells were seeded in six-well plates for 24 h, and then treated with 0.1% DMSO (as control), various concentrations of either compound e4 or e12 for 24 h (PC-9) or 12 h (H460), respectively. The treated cells were harvested, washed with PBS, and then stained using the cell-cycle staining kit according to the manufacturer’s manual. The distribution of cell-cycle phases with different DNA contents was determined by flow cytometry (BD LSRFortessa™ Flow Cytometer) and analyzed using ModFit LT software.

PC-9 xenograft = assay: In vivo antitumor activity, PC-9 xenograft in NSG mice; set-up: species or system mouse
Experimental: The mouse body mass was recorded as well.

[1] = Body mass of PC-9 tumor-bearing NSG mice after treatment; conditions: for Change in body weight: individual animals
Experimental: PC-9 xenografts were established by subcutaneous transplantation of cancer cells into the flanks of NSG mice (male, 4–6-week old). […] Tumor volumes were measured using calipers and calculated with the formula: V = length × width^2/2. The mouse body mass was recorded as well. 19 days after inoculation, the mice were sacrificed and the tumors were harvested and weighed.

[2] = test system: EGFR phosphorylation (Tyr1068) in PC-9 cells; assay: Western blot, p-EGFR/EGFR in PC-9; conditions: for p-EGFR/EGFR: band density ratio; for p-EGFR/EGFR relative to DMSO: ratio normalised to DMSO = 1; for phosphorylation of EGFR (western blot): PC-9, especially at 10 μM
Experimental: We also performed western blot analysis to evaluate the impact of e4 and e12 on EGFR signaling in PC-9 and H460 cells.
H460 cells were seeded in six-well plates with serum-free medium overnight, and then treated complete medium containing 0.1% DMSO, various concentrations (0.1, 1 and 10 μM) of either compound e4 or e12 for 2 h, respectively. […] Then the H460 cells were treated with complete medium containing EGF (10 ng/ml) for 5 min. Then the cells were harvested and washed with PBS, centrifuged, resuspended in 100–200 μl of RIPA lysis buffer containing Protease and Phosphatase Inhibitor Cocktail (1X), and then centrifuged for 5 min at 12,000 rpm at 4°C. The supernatant was used for protein analysis. […] Then the membrane was washed 5 min (X3) and incubated at 1:3,000 dilution of anti-rabbit secondary antibodies or 1:1,000 dilution of anti-mouse secondary antibodies for 1 h at RT. After washing with TBST 5 min (X3), protein bands were developed by chemiluminescence. The protein levels were quantified by the gray values of the bands in the resulting images by ImageJ, and the control group was used as the standard. […] The PC-9 cells were harvested and analyzed as above.

H460 cells = assay: CCK-8 antiproliferation assay, H460; conditions: for Inhibitory efficacy: H460 cells
[3] = 1uM, given as fraction, Repeat 1-3
[4] = 2uM, given as fraction, Repeat 1-3
[5] = 8uM, given as fraction, Repeat 1-3
[6] = 16uM, given as fraction, Repeat 1-3
[7] = Homo sapiens, NCI-H460, read-out: Inhibitory efficacy, H460 cells, 1uM, given as fraction, Repeat 1-3
[8] = Homo sapiens, NCI-H460, read-out: Inhibitory efficacy, H460 cells, 2uM, given as fraction, Repeat 1-3
[9] = Homo sapiens, NCI-H460, read-out: Inhibitory efficacy, H460 cells, 8uM, given as fraction, Repeat 1-3
[10] = Homo sapiens, NCI-H460, read-out: Inhibitory efficacy, H460 cells, 16uM, given as fraction, Repeat 1-3

In the case of `COCCOc1cc2ncnc(Nc3cccc(-c4cn(Cc5cc(Br)cc(Br)c5)nn4)c3)c2cc1OCCOC` [e4, [6,7-Bis-(2-methoxy-ethoxy)-quinazolin-4-yl]-{3-[1-(3,5-dibromo-benzyl)-1H-[1,2,3]triazol-4-yl]-phenyl}-amine], the G0/G1 (PC-9 cells; PC-9, 4uM) is reported as 48.12 and 48.79 and 52.62, the G2/M (PC-9 cells; PC-9, 4uM) is reported as 15.27 and 15.42 and 15.56 and the S (PC-9 cells; PC-9, 4uM) is reported as 36.61 and 35.79 and 31.83. For the same molecule, the G0/G1 (PC-9 cells; PC-9, 8uM) was 53.18 and 53.63 and 55.05, the G2/M (PC-9 cells; PC-9, 8uM) was 16.92 and 17.15 and 16.88 and the S (PC-9 cells; PC-9, 8uM) was 29.9 and 29.22 and 28.08. For the same molecule, the G0/G1 (PC-9 cells; PC-9, 12uM) was 60.53 and 62.02 and 63.46, the G2/M (PC-9 cells; PC-9, 12uM) was 23.33 and 22.27 and 17.86 and the S (PC-9 cells; PC-9, 12uM) was 16.14 and 15.71 and 18.68. For the same molecule, the “percentage of cells in the G0/G1 phase” value (PC-9 cells) was “induced higher percentages”, the tumor volume mean (PC-9 xenograft; Day13, group mean) was 63.4029 mm3 and the tumor length (PC-9 xenograft; Day13, individual animals) was 5.08 mm and 6.5 mm and 4.8 mm and 6.3 mm and 6.04 mm and 5.8 mm and 7.4 mm and 6.1 mm. The tumor volume (PC-9 xenograft; Day13, individual animals) was 59.9938 mm3 and 60.0925 mm3 and 44.376 mm3 and 55.566 mm3 and 68.426 mm3 and 38.5875 mm3 and 71.3446 mm3 and 78.292 mm3 and 93.9476 mm3, the tumor width (PC-9 xenograft; Day13, individual animals) was 4.86 mm and 4.3 mm and 4.2 mm and 4.76 mm and 3.5 mm and 4.96 mm and 4.6 mm and 5.55 mm and the tumor volume mean (PC-9 xenograft; Day15, group mean) was 44.2866 mm3. The tumor length (PC-9 xenograft; Day15, individual animals) was 3.97 mm and 5.56 mm and 5.73 mm and 4.91 mm and 4.11 mm and 5.48 mm and 4.95 mm and 6.93 mm and 5.72 mm, the tumor volume (PC-9 xenograft; Day15, individual animals) was 23.9012 mm3 and 57.8062 mm3 and 55.2146 mm3 and 35.078 mm3 and 33.0446 mm3 and 32.9921 mm3 and 21.979 mm3 and 91.1881 mm3 and 47.3756 mm3 and the tumor width (PC-9 xenograft; Day15, individual animals) was 3.47 mm and 4.56 mm and 4.39 mm and 3.78 mm and 4.01 mm and 2.98 mm and 5.13 mm and 4.07 mm. For the same molecule, the tumor volume mean (PC-9 xenograft; Day17, group mean) was 35.7355 mm3, the tumor length (PC-9 xenograft; Day17, individual animals) was 3.7 mm and 7.6 mm and 4.76 mm and 5.8 mm and 4.94 mm and 4.9 mm and 5.1 mm and 4.6 mm and the tumor volume (PC-9 xenograft; Day17, individual animals) was 17.7785 mm3 and 54.872 mm3 and 38.4618 mm3 and 25.4086 mm3 and 28.0515 mm3 and 47.432 mm3 and 38.7855 mm3 and 30.2575 mm3 and 40.572 mm3. The tumor width (PC-9 xenograft; Day17, individual animals) was 3.1 mm and 3.8 mm and 4.02 mm and 2.96 mm and 3.37 mm and 4.4 mm and 3.9 mm and 3.5 mm and 4.2 mm, the tumor volume mean (PC-9 xenograft; Day19, group mean) was 22.669 mm3 and the Tumor weight (PC-9 xenograft; Day19, individual animals) was 0.07 g and 0.02 g and 0.04 g and 0.03 g. For the same molecule, the tumor length (PC-9 xenograft; Day19, individual animals) was 4.55 mm and 5.74 mm and 3.59 mm and 2.83 mm and 2.52 mm and 3 mm and 4.51 mm and 5.54 mm and 4.24 mm, the tumor volume (PC-9 xenograft; Day19, individual animals) was 7.871 mm3 and 60.7292 mm3 and 20.5068 mm3 and 2.813 mm3 and 5.663 mm3 and 9.6774 mm3 and 39.0241 mm3 and 23.1353 mm3 and 34.6018 mm3 and the tumor width (PC-9 xenograft; Day19, individual animals) was 1.86 mm and 4.6 mm and 3.38 mm and 1.41 mm and 2.12 mm and 2.54 mm and 4.16 mm and 2.89 mm and 4.04 mm. For the same molecule, the Body weigh ([1]; Day13, individual animals) was 27 g and 25.6 g and 24.1 g and 27.3 g and 28.8 g, the Body weigh ([1]; Day15, individual animals) was 25.7 g and 26.2 g and 25.9 g and 27.3 g and 29 g and the “Change in body weight” value ([1]; Day15 vs previous weighing) was -4.815% and 2.344% and 7.469% and 0% and 0.6944%. The Body weigh ([1]; Day17, individual animals) was 26 g and 23.9 g and 26.1 g and 27.3 g and 29.1 g, the “Change in body weight” value ([1]; Day17 vs previous weighing) was 1.167% and -8.779% and 0.7722% and 0% and 0.3448% and the Body weigh ([1]; Day19, individual animals) was 25.9 g and 26 g and 26.2 g and 27.1 g and 29.1 g. For the same molecule, the “Change in body weight” value ([1]; Day19 vs previous weighing) was -0.3846% and 8.787% and 0.3831% and -0.7326% and 0%, the p-EGFR/EGFR ([2]; PC-9, 0.1 uM) was 0.3318 and the “p-EGFR/EGFR relative to DMSO” value ([2]; PC-9, 0.1 uM) was 0.2965. For the same molecule, the p-EGFR/EGFR ([2]; PC-9, 1 uM) was 0.2248, the “p-EGFR/EGFR relative to DMSO” value ([2]; PC-9, 1 uM) was 0.2009 and the p-EGFR/EGFR ([2]; PC-9, 10 uM) was 0.5115. The “p-EGFR/EGFR relative to DMSO” value ([2]; PC-9, 10 uM) was 0.4571, the “phosphorylation of EGFR (western blot)” value [2] was “suppressed” and the Inhibitory efficacy (H460 cells; [3]) was 0.09927 and 0.1204. The Inhibitory efficacy (H460 cells; [4]) was 0.08541 and 0.1118, the Inhibitory efficacy (H460 cells; [5]) was 0.8422 and 0.8158 and the Inhibitory efficacy (H460 cells; [6]) was 0.9425 and 0.965. The IC50 (H460 cells; Homo sapiens, NCI-H460, 48 h, read-out: IC50 (μM) H460, CCK-8, 48 h, average ± SD of three independent experiments) was less than 10 µM, the inhibition at 1 µM (H460 cells; [7]) was 19.4% and the inhibition at 2 µM (H460 cells; [8]) was 16.7%. The inhibition at 8 µM (H460 cells; [9]) was 79.5%, the inhibition at 16 µM (H460 cells; [10]) was 95% and the IC50 (H460 cells; read-out: IC50 (μM) H460, CCK-8, 48 h, average ± SD of three independent experiments) was 5.18 ± 0.78 µM.
In the case of `COCCOc1cc2ncnc(Nc3cccc(-c4cn(-c5ccc(C)cc5)nn4)c3)c2cc1OCCOC` [e12, [6,7-Bis-(2-methoxy-ethoxy)-quinazolin-4-yl]-[3-(1-p-tolyl-1H-[1,2,3]triazol-4-yl)-phenyl]-amine], the G0/G1 (PC-9 cells; PC-9, 4uM) is reported as 56.16 and 54.85 and 57.63, the G2/M (PC-9 cells; PC-9, 4uM) is reported as 17.84 and 17.98 and 15.19 and the S (PC-9 cells; PC-9, 4uM) is reported as 26.01 and 27.17 and 27.19. For the same molecule, the G0/G1 (PC-9 cells; PC-9, 8uM) was 53.08 and 54.06 and 56.12, the G2/M (PC-9 cells; PC-9, 8uM) was 20.06 and 19.34 and 16.67 and the S (PC-9 cells; PC-9, 8uM) was 26.86 and 26.6 and 27.1. The G0/G1 (PC-9 cells; PC-9, 12uM) was 56.88 and 57.79 and 60.22, the G2/M (PC-9 cells; PC-9, 12uM) was 21.27 and 20.78 and 17.44 and the S (PC-9 cells; PC-9, 12uM) was 21.85 and 21.43 and 22.34. For the same molecule, the “percentage of cells in the G0/G1 phase” value (PC-9 cells) was “induced higher percentages”, the melting point was 95 to 98 °C and the p-EGFR/EGFR ([2]; PC-9, 0.1 uM) was 1.065. For the same molecule, the “p-EGFR/EGFR relative to DMSO” value ([2]; PC-9, 0.1 uM) was 0.9518, the p-EGFR/EGFR ([2]; PC-9, 1 uM) was 0.9522 and the “p-EGFR/EGFR relative to DMSO” value ([2]; PC-9, 1 uM) was 0.8509. The p-EGFR/EGFR ([2]; PC-9, 10 uM) was 0.4177, the “p-EGFR/EGFR relative to DMSO” value ([2]; PC-9, 10 uM) was 0.3732 and the “phosphorylation of EGFR (western blot)” value [2] was “suppressed”. The Inhibitory efficacy (H460 cells; [3]) was 0.2117 and 0.1598, the Inhibitory efficacy (H460 cells; [4]) was 0.3397 and 0.3411 and the Inhibitory efficacy (H460 cells; 4uM, given as fraction, Repeat 1-3) was 0.5452 and 0.4421. For the same molecule, the Inhibitory efficacy (H460 cells; [5]) was 0.667 and 0.5743, the Inhibitory efficacy (H460 cells; [6]) was 0.9091 and 0.887 and the inhibition at 1 µM (H460 cells; [7]) was 16.7%. For the same molecule, the inhibition at 2 µM (H460 cells; [8]) was 36.8%, the inhibition at 4 µM (H460 cells; Homo sapiens, NCI-H460, read-out: Inhibitory efficacy, H460 cells, 4uM, given as fraction, Repeat 1-3) was 58.9% and the inhibition at 8 µM (H460 cells; [9]) was 65.1%. It also gave an inhibition at 16 µM (H460 cells; [10]) of 88.9%.
